Test results: patent US20150018361A1, “ANTI-TUMOR ACTIVITY OF REDUCED FOLATES LIKE METHYLENE-TETRAHYDROFOLATE” (ISOFOL MEDICAL AB, priority 2012, published 2015)
Entries after “also recorded” stand apart in the source; their conditions may differ.

Assays:
[1] = in the body; no species or test given; cited from earlier work
[2] = test system: HCT116 colorectal carcinoma xenograft; test: Anti-tumoral efficacy in the HCT116 colorectal carcinoma xenograft model (tumor volume); assay type: in vivo, female NCr nu/nu mice; details: intraperitoneal, 45 mg/kg or 1.7 mg/kg qd x 21, both high and low dose
Experimental: Purpose: To determine the anti-tumoral efficacy of [6R]-methylene-THF in the HCT116 colorectal carcinoma xenograft model. The HCT116 colorectal carcinoma cell line is sensitive to 5-FU and its analog capecitabine.
(§1) Study design: A total of 30 female NCr nu/nu mice (10 per group) at the age of 8-12 weeks were injected with 5×10^6 HCT116 tumor cells in 0% Matrigel sc in flank. When the tumors reached an average size of […] they were administered with intraperitoneal injections of vehicle or [6R]-methylene-THF (Modufolin®), according to the schedule in table 1. Animals were monitored individually. The endpoint of the experiment was when a tumor weight of 1300 mm3 or 65 days was reached, whichever came first. Responders could be followed longer. When the endpoint was reached, the animals were euthanized. Body weight (bw) (g) and tumor volume (mm3) was measured on days 1, 2 (bw only), 3 (bw only), 4, 5 (bw only), 7, 11, 14, 18, 21, 25, 28, 32, 35, 39, 42, 49, 53, 56, 60 and 63.

[3] = Body weight development / tolerability in the HCT116 xenograft study; assay type: in vivo, female NCr nu/nu mice; details: intraperitoneal
Experimental: as §1
Body weight gives an indication on how severe the side effects of the treatment are, poor development of body weight indicating more adverse side effects.

| Compound | half life [1] | anti-tumor activity (mean tumor volume over time compared to control) [2] | effect on animal weight ([3]; high-dose (45 mg/kg, qd x 21)) | body weight development compared to the vehicle group ([3]; qd x 21, both dose groups overall) | effect on animal weight ([3]; low-dose (1.7 mg/kg, qd x 21)) |
| --- | --- | --- | --- | --- | --- |
| Nc1nc2c(c(=O)[nH]1)N1CN(c3ccc(C(=O)N[C@@H](CCC(=O)O)C(=O)O)cc3)CC1CN2 (stereo partly shown) [methylene-THF, 5,10-methylene-tetrahydrofolic acid] | approximately 20 min | – | – | – | – |
| Nc1nc2c(c(=O)[nH]1)NC(CNc1ccc(C(=O)N[C@@H](CCC(=O)O)C(=O)O)cc1)CN2 (stereo partly shown) [THF, tetrahydrofolic acid] | approximately 30 min | – | – | – | – |
| CN1c2c(nc(N)[nH]c2=O)NCC1CNc1ccc(C(=O)N[C@@H](CCC(=O)O)C(=O)O)cc1 (stereo partly shown) [methyl-THF, 5-methyl-tetrahydrofolic acid] | approximately 5 hours | – | – | – | – |
| Nc1nc2c(c(=O)[nH]1)N1CN(c3ccc(C(=O)N[C@@H](CCC(=O)O)C(=O)O)cc3)C[C@H]1CN2 [[6R]-methylene-THF, [6R]-5,10-methylenetetrahydrofolic acid] | – | marked influence on tumor volume; also recorded: intrinsic antitumor activity | in line with the vehicle group | slightly positive body weight development | positive effect on animal weight |
